{"source": "patent US20090275565A1", "about": "“Substituted aralkyl derivatives” (CADILA HEALTHCARE LIMITED, priority 2002, published 2009)", "key": {"[1]": {"system": "C57BL/KsJ-db/db mice", "assay": "Serum glucose lowering activity in db/db mice models", "assay_type": "in vivo", "conditions": "male C57BL/KsJ-db/db mice, oral gavage, 3 mg/kg/day, 6 days, one hour after dosing on 6th day", "method": "• iii) Serum glucose lowering activity in db/db mice models\nHomozygous animal C57BL/KsJ-db/db mice are obese, hyperglycemic, hyperinsulinemic and insulin resistant (J. Clin. Invest., 85, 962-967, 1990), whereas heterozygous are lean and normoglycemic. The homozygous animals very closely mimic the human type II diabetes when blood sugar levels are not sufficiently controlled. Since this type of model resembles human type II diabetes mellitus, the compounds of the invention were tested for their antidiabetic activity in this model.\nMale C57 BL/KsJ-db/db mice of 8 to 14 weeks age, having body weight range of 40 to 60 grams, procured from the Jackson Laboratory, USA, were used in the experiment.\nTest compounds were suspended on 0.25% carboxymethyl cellulose or dissolved in water when the compound is water soluble and administered to test group containing 6 animals at a dose of 0.001 mg to 50 mg/kg through oral gavage daily for 6 days. The control group received vehicle (dose 10 ml/kg). On the 6th day, one hour after the drug dosing, blood was collected from retro-orbital sinus and the serum was analyzed for glucose and triglycerides were measured using commercial kits (Zydus-Cadila, Pathline, Ahmedabad, India). The serum glucose and triglyceride lowering activities of the test compound was calculated according of the formula: […]"}, "[2]": {"system": "Swiss albino mice", "assay": "Serum triglyceride and total cholesterol lowering activity in Swiss albino mice", "assay_type": "in vivo", "conditions": "male Swiss albino mice, oral, 3 mg/kg/day, 6 days, fed state 1 hour after dosing on 6th day", "method": "Male Swiss albino mice (SAM) were bred in Zydus animal house. All these animals were maintained under 12 hour light and dark cycle at 25±1° C. Animals were given standard laboratory chow (NIN, Hyderabad, India) and water ad libitum. SAM of 20-30 g body weight range were used.\nThe test compounds were administered orally to Swiss albino mice at 0.001 to 50 mg/kg/day dose for 6 days. The compound was administered after suspending it in 0.25% CMC or dissolving it in water, when compound is water-soluble. Control mice were treated with vehicle (0.25% of Carboxymethylcellulose; dose 10 ml/kg).\nThe blood samples were collected on 0th day and in fed state 1 hour after drug administration on 6th day of the treatment. The blood was collected in non heparinised capillary and the serum was analyzed for triglyceride and total cholesterol (Wieland, O. Methods of Enzymatic analysis. Bergermeyer, H., O., Ed., 1963. 211-214; Trinder, P. Ann. Clin. Biochem. 1969. 6: 24-27). Measurement of serum triglyceride and total cholesterol was done using commercial kits (Zydus-Cadila, Pathline, Ahmedabad, India).\nPercentage reduction in triglycerides/total cholesterol were calculated according to the formula: […]"}, "[3]": {"system": "hypercholesterolemic rat models", "assay": "Cholesterol lowering activity in hypercholesterolemic rat models", "assay_type": "in vivo", "conditions": "hypercholesterolemic male Sprague Dawley rats, oral, 3 mg/kg/day, serum", "method": "• ii) Cholesterol lowering activity in hypercholesterolemic rat models\nMale Sprague Dawley rats stock bred in Zydus animal house were maintained under 12 hour light and dark cycle at 25±1° C. Rats of 100-150 g body weight range were used for the experiment. Animals were made hypercholesterolemic by feeding 1% cholesterol and 0.5% sodium cholate mixed with standard laboratory chow (NIN, Hyderabad, India) and water ad libitum for 5 days. The animals were maintained on the same diet throughout the experiment [Petit D., Bonnefis M. T., Rey C and Infante R., Effects of ciprofibrate on liver lipids and lipoprotein synthesis in normal and hyperlipidemic rats, Atherosclerosis, 74, 215-225 (1988)].\nThe test compounds were administered orally at a dose 0.03 to 50 mg/kg/day for 4 days, after suspending it in 0.25% CMC or dissolving it in water when compound is water-soluble. Control group was treated with vehicle alone (0.25% of Carboxymethylcellulose; dose 10 ml/kg).\nThe blood samples were collected in fed state on 0th and 1 hour after drug administration on 6th day of the treatment. The blood was collected from the retro-orbital sinus through non-heparinised capillary and the serum samples were analyzed for triglyceride and total cholesterol using commercial kits (Zydus-Cadila, Pathline, Ahmedabad, India). LDL and HDL by commercial kits (point Scientific, USA). LDL and VLDL cholesterol were calculated from the data obtained for total cholesterol, HDL and triglyceride.\nThe reduction in VLDL cholesterol is calculated according to the formula.\nVLDL cholesterol in mg/dl=Total cholesterol−HDL cholesterol−LDL cholesterol"}}, "note": "Where a name gives a salt, the structure may show the parent alone.", "data": [{"smiles": "CCOC[C@H](Cc1ccc(OCCc2nc(-c3ccccc3)oc2C)cc1)OCC", "note": "[Compound 84, 1-Ethoxy-(2S)-ethoxy-3-[4-{2-(5-methyl-2-phenyl-oxazol-4-yl)-ethoxy}-phenyl]-propane]", "values": [{"measurement": "Plasma TG reduction (%)", "setting": "[1]", "value": 47, "unit": "%"}, {"measurement": "Serum Glucose reduction (%)", "setting": "[1]", "value": 47, "unit": "%"}]}, {"smiles": "CCO[C@H](CN)Cc1ccc(OCCc2nc(-c3ccccc3)oc2C)cc1", "note": "(as salt: bisulphate) [Compound 167, Bisulphate Salt of 2S-Ethoxy-3-{4-[2-(5-methyl-2-phenyl-oxazol-4-yl)-ethoxy]-phenyl}-propyl amine]", "values": [{"measurement": "melting point", "value": 175, "unit": "°C"}]}, {"smiles": "CCO[C@H](CN)Cc1ccc(OCCc2nc(-c3ccccc3)oc2C)cc1", "note": "[Compound 134, (2S)-Ethoxy-3-{4-[2-(5-methyl-2-phenyl-oxazol-4-yl)-ethoxy]-phenyl}-propylamine]", "values": [{"measurement": "% Triglyceride lowering", "setting": "[2]", "value": 54, "unit": "%"}]}, {"smiles": "CCO[C@H](CN)Cc1ccc(OCc2nc(-c3ccccc3)oc2C)cc1.O=C(O)C(=O)O", "values": [{"measurement": "melting point", "value": 135, "unit": "°C"}]}, {"smiles": "CCO[C@H](CO)Cc1ccc(OCCc2nc(-c3ccccc3)oc2C)cc1", "note": "[Compound 64, (2S)-Ethoxy-3-{4-[2-(5-methyl-2-phenyl-oxazol-4-yl)-ethoxy]-phenyl}-propan-1-ol]", "values": [{"measurement": "Plasma TG reduction (%)", "setting": "[1]", "value": 74, "unit": "%"}, {"measurement": "Serum Glucose reduction (%)", "setting": "[1]", "value": 56, "unit": "%"}]}, {"smiles": "CCO[C@H](COC(=O)CBr)Cc1ccc(OCCc2nc(-c3ccccc3)oc2C)cc1", "note": "[Compound 90, (2S)-Ethoxy-3-{4-[2-(5-methyl-2-phenyl-oxazol-4-yl)-ethoxy]-phenyl}-propyl bromo-acetate]", "values": [{"measurement": "Total cholesterol reduction (%)", "setting": "[3]", "value": 56, "unit": "%"}]}, {"smiles": "CCO[C@H](CN)Cc1ccc(OCc2nc(-c3ccccc3)oc2C)cc1", "note": "[Compound 141, (2S)-Ethoxy-3-{4-[5-methyl-2-phenyl-oxazol-4-ylmethoxy]-phenyl}-propylamine]", "values": [{"measurement": "Total cholesterol reduction (%)", "setting": "[3]", "value": 61, "unit": "%"}]}, {"smiles": "CCO[C@@H](Cc1ccc(OCc2nc(-c3cccs3)oc2C)cc1)C(=O)O", "note": "[Compound 27, (2S)-Ethoxy-3-[4-(5-methyl-2-thiophen-2-yl-oxazol-4-ylmethoxy)-phenyl]-propanoic acid]", "values": [{"measurement": "Total cholesterol reduction (%)", "setting": "[3]", "value": 44, "unit": "%"}]}]}
